Reference: article PMC5842390, “Protection Efficacy of C5A Against Vaginal and Rectal HIV Challenges in Humanized Mice” (The Open Virology Journal, 2018)
Read-outs that look alike come from different tables or passages of the source. Ends that are not written are not given here.

Key:
[1] = macaques vaginally treated with repeated C5A applications; cited from earlier work
Description: Following these studies with unformulated C5A solutions applied topically, the next goal is to formulate C5A, alone and in combination with other antiretroviral agents, into murine intravaginal rings to evaluate sustained topical delivery approaches for protection against vaginal and rectal HIV challenges. We plan on using a combination of drugs with distinct mechanisms of action.

[2] = system: simian-human immunodeficiency virus (SHIV-162P3); conditions: vaginal application of C5A; ref 58 (b36 prints ref 57); cited from earlier work
Description: In the absence of a safe and effective vaccine, there is an imperative demand for effective agents to reduce the 7,000 new HIV infections occurring every day. An attractive possibility is to identify the best drugs and drug combinations, delivered by optimal nBP methods such Intravaginal Rings (IVRs) for vaginal delivery and gels or enemas for rectal protection. We previously reported that C5A, a short, amphipathic, 18 amino acid (SWLRDIWDWICEVLSDFK) helical peptide, inhibits in vitro infectivity of a broad range of primary HIV isolates in various primary target cells. In this study, we ... || Following these studies with unformulated C5A solutions applied topically, the next goal is to formulate C5A, alone and in combination with other antiretroviral agents, into murine intravaginal rings to evaluate sustained topical delivery approaches for protection against vaginal and rectal HIV challenges. We plan on using a combination of drugs with distinct mechanisms of action.

[3] = system: cervical epithelial cells; conditions: at a concentration of 10- to 100-fold greater than that which blocks HIV infection; cited from earlier work
Description: The short amphipathic helical peptide SWLRDIWDWICEVLSDFK called C5A, was originally identified by the Chisari lab as an active anti-hepatitis C virus (HCV) agent. The C5A amino acid sequence encompasses the region that permits the anchoring of the HCV nonstructural protein 5A (NS5A) into the ER membrane by an in-plane amphipathic alpha-helix (Fig. 1).

[4] = system: HIV JR-CSF; assay type: in vivo, humanized BLT mice; conditions: for Slope parameter (m) of median-effect plot: median-effect model, analogous to Hill coefficient; for EC50: sigmoidal dose-response (variable slope) model, 6.25-200 µM, n=10 per concentration
Description: Humanized BLT mice were created as described previously, by implanting 1-mm^3 pieces of human fetal liver and thymus tissues (Advanced Bioscience Resources) under the kidney capsule of 6- to 8-week-old female NSG mice (Jackson Laboratories) bred at The Scripps Research Institute (TSRI). Each cohort was produced with tissues from a single donor. CD34+ hematopoietic stem and progenitor cells (HSPC) were purified from autologous fetal liver tissue, isolated by magnetic bead selection for CD34+ cells (Miltenyi), phenotyped by flow cytometry, and cryopreserved until injection (200,000-350,000 CD34+ cells) into mice 3 weeks after fetal liver and thymus tissue implantation. Human cell population reconstitution in peripheral blood was confirmed by flow cytometry as described previously. Briefly, the degree of humanization of the BLT mice was evaluated at 20 weeks of age (10 weeks post-CD34+ HSPC injection) by analysis of percentages of human CD45+ cells and human CD45+ CD4+ CD3+ cells in peripheral blood by FACS. Mice with <65% human CD45+ cells and <70% human CD45+ CD4+ CD3+ cells were not used for HIV exposure experiments. Mice were kept at the Department of Animal Resources at TSRI in accordance with protocols approved by the TSRI Institutional Animal Care and Use Committee.
Solutions of C5A peptides were prepared in phosphate buffered saline (PBS). After verifying the reconstitution of mice with human cells, a dose ranging study was conducted to determine the EC50 of C5A for preventing vaginal and rectal HIV infection. Stocks of HIV JR-CSF were prepared as previously described and standardized by p24 ELISA. Prior to inoculation, mice were anesthetized with isoflurane. Aliquots of C5A in PBS (5 µL) were administered vaginally or rectally in decreasing concentrations (200, 100, 50, 25, 12.5 and 6.25 µM; n=10 mice per concentration). Fifteen minutes post-C5A topical administration, mice were challenged (vaginal challenge for vaginal C5A administration, rectal challenge for C5A rectal administration) with HIV.
Infection of BLT mice was analyzed by quantifying HIV RNA levels in peripheral blood (plasma) using one-step reverse transcriptase quantitative real-time PCR (ABI custom TaqMan Assays-by-Design) according to the manufacturer’s instructions. Primers were 5-[…]-3 and 5-TGCTTGATGT CCCCCCACT-3, and MGB-probe 5-FAM-[…]-Q-3, where FAM is 6-carboxyfluorescein [36-38, 40, 42, 44-47, 52-54]. The assay sensitivity was of […] 400 RNA copies per mL.
Data were analyzed using GraphPad Prism (version 7.00, GraphPad Software, Inc., La Jolla, CA). Analytic simulations of dose-response curves using the median-effect principle and mass-action law, and its combination index theorem were carried out using CompuSyn.

[5] = system: HSV; conditions: Vero cells, human dendritic cells, primary genital epithelial cells in vitro, human epidermis ex vivo; cited from earlier work
Description: Previous studies have shown that C5A inhibits HSV infection of Vero cells, human dendritic cells and primary genital epithelial cells in vitro as well as human epidermis (epidermal sheets) ex vivo, and that it inhibits acyclovir- and ganciclovir-resistant HSV isolates. Remarkably, in an in vitro transwell assay, C5A prevented HIV transmigration by preserving the integrity of the genital epithelium that ...

[6] = seminal plasma, cervical and vaginal fluids; cited from earlier work
Description: (§1) In the absence of a safe and effective vaccine, there is an imperative demand for effective agents to reduce the 7,000 new HIV infections occurring every day. An attractive possibility is to identify the best drugs and drug combinations, delivered by optimal nBP methods such Intravaginal Rings (IVRs) for vaginal delivery and gels or enemas for rectal protection. We previously reported that C5A, a short, amphipathic, 18 amino acid (SWLRDIWDWICEVLSDFK) helical peptide, inhibits in vitro infectivity of a broad range of primary HIV isolates in various primary target cells. In this study, we ...

[7] = system: HIV; conditions: cited from earlier work
Description: as §1

SWLRDIWDWICEVLSDFK [C5A]
Signs of lesions or inflammation [1]: no signs of lesions or inflammation | Macaques protected from SHIV-162P3 challenge [2]: 89% | Toxicity to cervical epithelial cells [3]: not toxic | Slope parameter (m) of median-effect plot ([4]; rectal compartment): 7.7 ± 1.2 | EC50 ([4]; rectal dosing, read-out: EC50 for protection against rectal HIV challenge): 25.7 µM | Slope parameter (m) of median-effect plot ([4]; vaginal compartment): 7.6 ± 1.2 | EC50 ([4]; vaginal dosing, read-out: EC50 for protection against vaginal HIV challenge): 32.5 µM | Inhibition of HSV infection [5]: efficiently inhibits | Antiviral activities in genital fluids [6]: maintains its antiviral activities | Antiviral activity between pH 5 and 7 ([7]; pH 5 to 7): keeps is antiviral activity | Antiviral activity at pH 8 ([7]; pH 8): loses its activity | Protection against a vaginal challenge of HIV ([7]; topical vaginal administration of 200 µM C5A in PBS, humanized mice): 100%
